The values that follow come from patent US10239843B2 (CANCER RESEARCH TECHNOLOGY LIMITED, priority 2014, dated 2019).

Structures are written as SMILES.

For one test, the target named is Human Full Length PARG (Homo sapiens (Human), UniProt Q86W56). Kind of test: PARG enzyme assay (TR-FRET). Particulars: read-out: PARG Biochem IC50. It is filed as biochemical.
Sequence of Human Full Length PARG (Q86W56 whole entry): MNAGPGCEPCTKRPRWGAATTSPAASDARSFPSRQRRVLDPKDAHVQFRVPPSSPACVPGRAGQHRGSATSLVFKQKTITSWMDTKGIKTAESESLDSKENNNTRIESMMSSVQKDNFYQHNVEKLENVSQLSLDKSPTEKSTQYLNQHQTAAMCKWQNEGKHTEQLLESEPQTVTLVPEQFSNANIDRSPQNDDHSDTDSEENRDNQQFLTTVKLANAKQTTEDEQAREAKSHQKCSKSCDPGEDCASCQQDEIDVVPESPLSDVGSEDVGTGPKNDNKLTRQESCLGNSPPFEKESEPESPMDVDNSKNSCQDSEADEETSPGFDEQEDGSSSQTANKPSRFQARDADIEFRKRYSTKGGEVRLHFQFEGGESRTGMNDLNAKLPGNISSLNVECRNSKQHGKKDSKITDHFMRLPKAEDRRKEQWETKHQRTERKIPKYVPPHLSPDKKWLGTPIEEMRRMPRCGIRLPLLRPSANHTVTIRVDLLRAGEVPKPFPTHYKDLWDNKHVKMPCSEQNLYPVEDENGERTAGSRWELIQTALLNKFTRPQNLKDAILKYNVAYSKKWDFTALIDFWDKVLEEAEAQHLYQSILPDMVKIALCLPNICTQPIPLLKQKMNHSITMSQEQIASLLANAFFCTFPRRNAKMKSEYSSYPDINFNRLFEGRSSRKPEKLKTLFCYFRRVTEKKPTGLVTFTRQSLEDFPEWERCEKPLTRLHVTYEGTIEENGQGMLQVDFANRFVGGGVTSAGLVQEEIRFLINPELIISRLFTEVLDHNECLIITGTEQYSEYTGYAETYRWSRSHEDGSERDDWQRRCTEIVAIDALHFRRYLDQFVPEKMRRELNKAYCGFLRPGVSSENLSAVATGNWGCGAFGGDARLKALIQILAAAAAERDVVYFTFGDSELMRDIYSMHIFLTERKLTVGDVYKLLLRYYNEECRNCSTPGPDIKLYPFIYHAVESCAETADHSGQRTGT
Take `CC(C)c1nnsc1Cn1c(=O)c2cc(S(=O)(=O)NC3(C)CC3)ccc2n(C)c1=O` [Example 509, 3-[(4-Isopropylthiadiazol-5-yl)methyl]-1-methyl-N-(1-methylcyclopropyl)-2,4-dioxo-quinazoline-6-sulfonamide]: the IC50 came to 7220 nM.

On to `Cn1c(=O)n(Cc2cnc[nH]2)c(=O)c2cc(S(=O)(=O)NC3(C)CC3)ccc21` [Example 505, 3-(1H-Imidazol-4-ylmethyl)-1-methyl-N-(1-methylcyclopropyl)-2,4-dioxo-quinazoline-6-sulfonamide], for which the IC50 was found to be 3790 nM.

Regarding `Cn1c(=O)n(CC(=O)c2ccc(C#N)cc2)c(=O)c2cc(S(=O)(=O)NC3(C)CC3)ccc21` [Example 531, 3-[2-(4-Cyanophenyl)-2-oxo-ethyl]-1-methyl-N-(1-methylcyclopropyl)-2,4-dioxo-quinazoline-6-sulfonamide], the IC50 came to 3270 nM.

Turning to `Cn1c(=O)n(CCc2ccccn2)c(=O)c2cc(S(=O)(=O)NC3(C)CC3)ccc21` [Example 498, 1-Methyl-N-(1-methylcyclopropyl)-2,4-dioxo-3-[2-(2-pyridyl)ethyl]quinazoline-6-sulfonamide], the IC50 worked out at 3920 nM.

Take `Cn1c(=O)n(Cc2nnc(C(F)(F)F)o2)c(=O)c2cc(S(=O)(=O)NC3(C)CC3)ccc21` [Example 501, 1-Methyl-N-(1-methylcyclopropyl)-2,4-dioxo-3-[[5-(trifluoromethyl)-1,3,4-oxadiazol-2-yl]methyl]quinazoline-6-sulfonamide]: the IC50 worked out at 1610 nM.

As for `Cc1cc(Cn2c(=O)c3cc(S(=O)(=O)NC4(C)CC4)ccc3n(CC(C)(C)F)c2=O)on1` [Example 453, 1-(2-Fluoro-2-methyl-propyl)-N-(1-methylcyclopropyl)-3-[(3-methylisoxazol-5-yl)methyl]-2,4-dioxo-quinazoline-6-sulfonamide], the IC50 was determined as 348 nM.

The same test, now with this note: read-out: PARG Biochem IC50 Geomean.
For `Cc1ccc(Cn2c(=O)n(C)c(=O)c3cc(S(=O)(=O)NC4(C)CC4)ccc32)cc1` [Example 58], the IC50 stood at 1570 nM.

`Cc1cc(Cn2nc(C(=O)O)c3ccc(S(=O)(=O)NC4(C)CC4)cc3c2=O)on1` [Example 302, 6-(N-(1-Methylcyclopropyl)sulfamoyl)-3-((3-methylisoxazol-5-yl)methyl)-4-oxo-3,4-dihydrophthalazine-1-carboxylic acid]: the IC50 amounted to 6720 nM.

Turning to `C#CCn1c(=O)c2cc(S(=O)(=O)NC3(C)CC3)ccc2n(C)c1=O` [Example 47], the IC50 turned out to be 2970 nM.

`Cn1c(=O)n(Cc2cccnc2)c(=O)c2cc(S(=O)(=O)NC3(C)CC3)ccc21` [Example 30]: the IC50 turned out to be 2550 nM.

As for `Cc1cc(Cn2c(=O)c3cc(S(=O)(=O)NC4(C)CC4)ccc3n(CC(C)O)c2=O)on1` (stereo not drawn) [Example 338], the IC50 came to 523 nM.

With `Cc1cc(Cn2cc(C)c3ccc(S(=O)(=O)NC4(C)CC4)cc3c2=O)on1` [Example 256, 4-Methyl-N-(1-methylcyclopropyl)-2-[(3-methylisoxazol-5-yl)methyl]-1-oxo-isoquinoline-7-sulfonamide], the 50% inhibitory concentration (IC50) was determined as 1280 nM.

Consider `Cn1c(=O)c2cc(S(=O)(=O)NC3(C)CC3)ccc2n(Cc2cccc(C#N)c2)c1=O` [Example 69], for which the IC50 is 1140 nM.

As for `CCn1c(=O)c2cc(S(=O)(=O)NC3(C)CC3)ccc2n(CCOC)c1=O` [Example 17], the IC50 was 1570 nM.

Consider `Cn1ccnc1Cn1c(=O)n(C)c(=O)c2cc(S(=O)(=O)NC3(C)CC3)ccc21` [Example 48], for which the IC50 is 750 nM.

For the molecule `Cc1nc(C)c(Cn2c(=O)c3cc(S(=O)(=O)NC4(C)CC4)ccc3n(C)c2=O)o1` [Example 189], the IC50 is 1330 nM.

Turning to `Cc1ncoc1Cn1c(=O)c2cc(S(=O)(=O)NC3(C)CC3)ccc2n(C)c1=O` [Example 188], the IC50 amounted to 1840 nM.

In the case of `CCn1c(=O)c2cc(S(=O)(=O)NC3(C)CC3)ccc2n(CC2CCCCC2)c1=O` [Example 13], the IC50 is 3100 nM.

With `CC1(NS(=O)(=O)c2ccc3[nH]c(=O)n(CC(N)=O)c(=O)c3c2)CC1` [Example 223, 2-[6-[(1-Methylcyclopropyl)sulfamoyl]-2,4-dioxo-1H-quinazolin-3-yl]acetamide], the 50% inhibitory concentration (IC50) came out at 7470 nM.

As to `Cc1cc(Cn2c(=O)[nH]c3ccc(S(=O)(=O)NC4(C)CC4)cc3c2=O)on1` [Example 221, N-(1-methylcyclopropyl)-3-[(3-isoxazol-5-yl)methyl]-2,4-dioxo-1H-quinazoline-6-sulfonamide], the IC50 was 649 nM.

On to `Cn1nccc1Cn1c(=O)n(C)c(=O)c2cc(S(=O)(=O)NC3(C)CC3)ccc21` [Example 125], for which the IC50 was 1230 nM.

With `COc1cccc(Cc2nn(Cc3cc(C)no3)c(=O)c3cc(S(=O)(=O)NC4(C)CC4)ccc23)c1` [Example 315], the IC50 was 871 nM.

Turning to `Cn1c(=O)c2cc(S(=O)(=O)NC3(C)CC3)ccc2n(Cc2nc3ccccc3[nH]2)c1=O` [Example 116], the IC50 stood at 1050 nM.

Regarding `CCn1c(=O)c2cc(S(=O)(=O)NC3(C#N)CC3)ccc2n(CC)c1=O` [Example 5], the IC50 is 1820 nM.

Regarding `Cn1c(=O)c2cc(S(=O)(=O)NC3(C)CC3)cc(F)c2n(C)c1=O` [Example 225], the IC50 was determined as 7490 nM.

As to `Cn1c(=O)n(Cc2cncs2)c(=O)c2cc(S(=O)(=O)NC3(C)CC3)ccc21` [Example 147], the IC50 was found to be 1210 nM.

Turning to `CNC(=O)c1nn(Cc2cc(C)no2)c(=O)c2cc(S(=O)(=O)NC3(C)CC3)ccc12` [Example 303], the IC50 came to 800 nM.

For `Cn1c(=O)c2cc(S(=O)(=O)NC3(C)CC3)ccc2n(CC2(C)COC2)c1=O` [Example 42], the IC50 was 2450 nM.

Turning to `Cn1c(=O)n(Cc2cnn(CC3CC3)c2)c(=O)c2cc(S(=O)(=O)NC3(C)CC3)ccc21` [Example 218], the IC50 was 681 nM.

Turning to `Cc1cc(Cn2cc(Cl)c3ccc(S(=O)(=O)NC4(C)CC4)cc3c2=O)on1` [Example 209, 4-Chloro-N-(1-methylcyclopropyl)-2-[(3-methylisoxazol-5-yl)methyl]-1-oxo-isoquinoline-7-sulfonamide], the IC50 amounted to 1640 nM.

`Cc1cc(Cn2c(=O)c3cc(S(=O)(=O)NC4CC4)ccc3n(C)c2=O)on1` [Example 260]: the IC50 is 3790 nM.

Consider `COC(=O)c1nn(Cc2cc(C)no2)c(=O)c2cc(S(=O)(=O)NC3(C)CC3)ccc12` [Example 301], for which the IC50 was 836 nM.

Turning to `CCOc1nn(Cc2cc(C)no2)c(=O)c2cc(S(=O)(=O)NC3(C)CC3)ccc12` [Example 316, 1-Ethoxy-N-(1-methylcyclopropyl)-3-[(3-methylisoxazol-5-yl)methyl]-4-oxo-phthalazine-6-sulfonamide], the IC50 is 737 nM.

For the molecule `Cc1cc(Cn2cc(C#CCN(C)C)c3ccc(S(=O)(=O)NC4(C)CC4)cc3c2=O)on1` [Example 286, 4-[3-(Dimethylamino)prop-1-ynyl]-N-(1-methylcyclopropyl)-2-[(3-methylisoxazol-5-yl)methyl]-1-oxo-isoquinoline-7-sulfonamide], the IC50 came to 842 nM.

As to `Cc1cc(Cn2nc(C(=O)NCC3CCOCC3)c3ccc(S(=O)(=O)NC4(C)CC4)cc3c2=O)on1` [Example 331], the IC50 turned out to be 795 nM.

As for `Cn1c(=O)c2cc(S(=O)(=O)NC3(C)CC3)ccc2n(C)c1=O` [Example 2], the IC50 was 4740 nM.

As to `Cc1cc(Cn2cnc3ccc(S(=O)(=O)NC4(C)CC4)cc3c2=O)on1` [Example 210], the IC50 was found to be 1230 nM.

In the case of `Cc1cc(Cn2c(=O)c3cc(S(=O)(=O)NC4(C)CC4)ccc3n(C)c2=O)n[nH]1` [Example 195], the IC50 worked out at 3220 nM.

As to `COc1cc(Cn2c(=O)n(C)c(=O)c3cc(S(=O)(=O)NC4(C)CC4)ccc32)cc(OC)c1` [Example 78], the 50% inhibitory concentration (IC50) came to 621 nM.

With `Cn1c(=O)c2cc(S(=O)(=O)NC3(C)CC3)ccc2n(Cc2cccnc2)c1=O` [Example 83], the IC50 is 1330 nM.

Take `CCn1c(=O)c2cc(S(=O)(=O)NC3(C)CC3)ccc2n(CC)c1=O` [Example 4]: the IC50 came to 1470 nM.

Take `Cn1c(=O)c2cc(S(=O)(=O)NC3(C)CC3)ccc2n(Cc2nccs2)c1=O` [Example 146]: the IC50 was found to be 671 nM.

As to `Cn1c(=O)c(=O)[nH]c2ccc(S(=O)(=O)NC3(C)CC3)cc21` [Example 21, 4-Methyl-N-(1-methylcyclopropyl)-2,3-dioxo-1H-quinoxaline-6-sulfonamide], the IC50 turned out to be 6930 nM.

On to `Cc1nc(C(F)(F)F)c(Cn2c(=O)c3cc(S(=O)(=O)NC4(C)CC4)ccc3n(C)c2=O)s1` [Example 179], for which the concentration for half-maximal inhibition (IC50) turned out to be 725 nM.

For `Cn1cc(-c2ccc(F)cc2)c2ccc(S(=O)(=O)NC3(C)CC3)cc2c1=O` [Example 255, 4-(4-Fluorophenyl)-2-methyl-N-(1-methylcyclopropyl)-1-oxo-isoquinoline-7-sulfonamide], the IC50 was 8520 nM.

In the next test the test system is PARG in HeLa cell line. Kind of test: PARG cell assay (PAR chain immunofluorescence after MMS). It is filed as cell-based. The settings on record: Homo sapiens; HeLa cells, MMS 50 μg/mL; read-out: PARG Cell IC50 Geomean. As for the experimental part:
This method is based on the detection of endogenous levels of poly (ADP) ribose chains present in the nucleus of HeLa cell line using indirect immunofluorescence. MMS stimulation increases PAR chains for up to 25 mins. After that point, PARG is active and breaks down the PAR chains, until by one hour after stimulation no PAR chains are detectable. Inhibition of PARG maintains PAR chains.
Briefly, following compound treatment and treatment with the DNA damaging agent methylmethanesulfonate (MMS), the cell monolayer is fixed, then permeabilised and incubated with a mouse monoclonal antibody raised against multimers of poly(ADP) ribose.
At the end of the 1 h dosing period, MMS was added to duplicates at a final concentration of 50 μg/mL, for a further hour.
Media was tipped off and the cells fixed with 50 μL ice-cold 95% MetOH/PBS for 15 mins at −20° C. Following a PBS wash, 50 μL PBS/0.1% Triton was added to the cells for 20 mins. Following another PBS wash, anti-PAR antibody (Calbiochem AM80) was diluted 1:4000 in a buffer (PBS+0.5% FBS+0.05% Tween20) and added to the cells and incubated overnight at 4° C.
Cells were washed three times with PBS and the plate sealed with a light-proof seal.
With `Cn1c(=O)c2cc(S(=O)(=O)NC3(C)CC3)ccc2n(CC2CC2(F)F)c1=O` (stereo not drawn) [Example 36], the IC50 turned out to be 591 nM.

Consider `Cc1cc(Cn2c(=O)c3cc(S(=O)(=O)NC4(C)CC4)ccc3n(CC3CC(C)(C)O3)c2=O)on1` (stereo not drawn) [Example 352], for which the IC50 amounted to 608 nM.

The test is the same for the next values; noted with them: Homo sapiens; HeLa cells, MMS treatment; read-out: PARG Cell IC50.
With `Cc1cc2cc(S(=O)(=O)NC3(C)CC3)ccc2n(CC2CC2)c1=O` [Example 426, 1-(Cyclopropylmethyl)-3-methyl-N-(1-methylcyclopropyl)-2-oxo-quinoline-6-sulfonamide], the IC50 was 1400 nM.
